Measurements as given in US6011135A, “Triazine thiol derivative having a perfluoro group, method for producing same and use of same” (Iwate University, priority 1997, dated 2000).

Experiments:
Type in all cases: physicochemical
[1] = Dissociation constants (pKa1, pKa2), yardstick for reactivity; settings: dissociation constant
From the text: (§1) In Table 5 below, there is shown the effectiveness of 6-perfluoro alkylamino-1,3,5-triazine-2,4-dithiol of examples of the present invention by comparing the dissociation constants, oxidation potential and critical micelle concentration with those of the comparative example.
(§2) With respect to the dissociation constants (pKa1, pKa2), which may function as a yardstick for reactivity, all the examples of the present invention have lower dissociation constants than the comparative example. Accordingly, it is understood that the triazine thiol derivative having a perfluoro group of the present invention has an excellent reactivity. With regard to the oxidation potential which functions as a yardstick for easiness of tribological polymerization and electrolytic polymerization, each example has a lower oxidation potential than the comparative example. This means that an oxidative polymerization of the triazine thiol derivative having a perfluoro group according to the present invention is easier than that of the comparative example. Further, the critical micelle concentration of every example is lower than that of the comparative example. This means that micelle formation is easier in the examples and thus, the triazine thiol derivative having a perfluoro group according to the present invention has an excellent surface activity.

[2] = Oxidation potential, yardstick for easiness of tribological and electrolytic polymerization
From the text: as §1, §2

[3] = Critical micelle concentration (surface activity)
From the text: as §1, §2

[4] = Solubility of 6-perfluoro alkylamino-1,3,5-triazine-2,4-dithiol to various solvents; design: key to Solubility, Toluene: X: did not solved; Δ: slightly solved (1 wt % or less); .largecircle.: sufficiently solved (1-10 wt %); .circleincircle.: excellently solved (10 wt % or more)

CCCCN(CC(F)(F)C(F)(F)C(F)(F)C(F)(F)C(F)(F)C(F)(F)C(F)(F)F)c1nc(S)nc(S)n1 [Example 12]
pKa1 [1]: 7.4
pKa2 [1]: 10.4
Oxidation potential [2]: 0.46 V vs. Ag^+ /Ag
Critical micelle concentration [3]: 2.1e-05 mol/L
Solubility, MEK [4]: .circleincircle. (excellently solved (10 wt % or more))
Solubility, Acetic ether [4]: .largecircle. (sufficiently solved (1-10 wt %))
Solubility, Ethanol [4]: .largecircle. (sufficiently solved (1-10 wt %))
Solubility, Toluene [4]: .largecircle. (sufficiently solved (1-10 wt %))
Solubility, Water [4]: .largecircle. (sufficiently solved (1-10 wt %))

FC(F)(F)C(F)(F)C(F)(F)C(F)(F)C(F)(F)C(F)(F)C(F)(F)c1ccc(Nc2nc(S)nc(S)n2)cc1 [Comparative example, reference compound]
pKa1 [1]: 8.3
pKa2 [1]: 10.7
Oxidation potential [2]: 0.90 V vs. Ag^+ /Ag
Critical micelle concentration [3]: 0.022 mol/L
Solubility, MEK [4]: Δ (slightly solved (1 wt % or less))
Solubility, Acetic ether [4]: Δ (slightly solved (1 wt % or less))
Solubility, Ethanol [4]: Δ (slightly solved (1 wt % or less))
Solubility, Toluene [4]: X
Solubility, Water [4]: Δ (slightly solved (1 wt % or less))

FC(F)(F)C(F)(F)C(F)(F)C(F)(F)C(F)(F)C(F)(F)C(F)(F)CN(c1nc(S)nc(S)n1)C1CCCCC1 [Example 13]
pKa1 [1]: 6.2
pKa2 [1]: 10.6
Oxidation potential [2]: 0.78 V vs. Ag^+ /Ag
Critical micelle concentration [3]: 5.6e-05 mol/L
Solubility, MEK [4]: .circleincircle. (excellently solved (10 wt % or more))
Solubility, Acetic ether [4]: .largecircle. (sufficiently solved (1-10 wt %))
Solubility, Ethanol [4]: .largecircle. (sufficiently solved (1-10 wt %))
Solubility, Toluene [4]: .largecircle. (sufficiently solved (1-10 wt %))
Solubility, Water [4]: .largecircle. (sufficiently solved (1-10 wt %))

CCCCN(CC(F)(F)C(F)(F)C(F)(F)C(F)(F)C(F)(F)C(F)(F)C(F)(F)C(F)(F)C(F)(F)C(F)(F)F)c1nc(S)nc(S)n1 [Example 14]
pKa1 [1]: 7.5
pKa2 [1]: 9.8
Oxidation potential [2]: 0.56 V vs. Ag^+ /Ag
Critical micelle concentration [3]: 1.1e-05 mol/L
Solubility, MEK [4]: .circleincircle. (excellently solved (10 wt % or more))
Solubility, Acetic ether [4]: .largecircle. (sufficiently solved (1-10 wt %))
Solubility, Ethanol [4]: .largecircle. (sufficiently solved (1-10 wt %))
Solubility, Toluene [4]: .largecircle. (sufficiently solved (1-10 wt %))
Solubility, Water [4]: .largecircle. (sufficiently solved (1-10 wt %))

FC(F)(F)C(F)(F)C(F)(F)C(F)(F)C(F)(F)C(F)(F)C(F)(F)CNc1nc(S)nc(S)n1 [Example 11]
pKa1 [1]: 8.1
pKa2 [1]: 10.3
Oxidation potential [2]: 0.62 V vs. Ag^+ /Ag
Critical micelle concentration [3]: 0.0021 mol/L
Solubility, MEK [4]: .largecircle. (sufficiently solved (1-10 wt %))
Solubility, Acetic ether [4]: Δ (slightly solved (1 wt % or less))
Solubility, Ethanol [4]: .largecircle. (sufficiently solved (1-10 wt %))
Solubility, Toluene [4]: Δ (slightly solved (1 wt % or less))
Solubility, Water [4]: .largecircle. (sufficiently solved (1-10 wt %))
